# System: spinal nerve ligation model for neuropathic pain in rats
# Assay: Spinal nerve ligation (Chung) model of neuropathic pain, Von Frey test
# Assay type: in vivo
# Conditions: 150 mg/kg IP once daily from study day 14 to 21; 2 hours post-treatment on study days 14 and 21; male SD rats
# Excerpt: Experimental animals were male SD rats with a starting weight of 230-250 grams. Total number of animals were n=90 for surgery and n=60 after selection. The animals were caged in groups of 3 in a temperature and humidity controlled area. They were maintained on a 12 hr light/dark cycle and had ad libitum access to food and water.
# Neuropathic pain inducement was done by following principles of Chung induced model. The SD rats were anesthetized using ketamine/xylazine sodium. The rats were shaved and placed in prone position for surgery. The L5-L6 spinal nerves were surgically litigated. The rats were returned to their cages for recuperation and recovery under comfortable warm conditions using heat lamps.
# After seven days of surgery a pre selection was performed. Animals that indicate signs of post operative pain were to be selected to proceed. Pain is detected by observing when one or more of the criteria are met as follows. Licking of the operated paw, accompanied by gentle biting or pulling on the nails with the mouth; placing the leg in the air; bearing weight on the side contra-lateral to the nerve injury; deformities of the hind paw and abnormal posture and walking; weakness of the left hind paw. […] However, the animal must be able to move its leg to ensure that the L4 spinal nerve is intact. If the animal cannot move its leg, it was excluded from the study. […]
compound,measurement,value
CC(OC(=O)CCCC[C@@H]1CCSS1)OC(=O)NC(C)C(C)COC(=O)c1ccccc1 (stereo partly shown) [final compound of formula 1],efficacy as reflected in the parameters of mechanical allodynia (Von Frey),effective

# From patent US20110237658A1, “COMPOUND AND METHOD FOR THE TREATMENT OF PAIN” (KRISHANI BIOSCIENCES (P) LTD, priority 2010, published 2011)
